Results published in patent US20090118301A1, “Compositions and Methods for Treating Cancer” (Arbor Vita Corporation, priority 2007, published 2009).

Legend:
[1] = target: T1, MAGI-1 PDZ domain 1 (interaction with HPV E6 protein) (Homo sapiens, UniProt Q96QZ7); assay: matrix/array PDZ/PL competition assay, titration, Magi1 d1; assay type: binding; conditions: compared with the other PDZ domains and compounds of Table 1
T1 construct: MAGI-1 PDZ domain 1 was used as a target for rational drug design
T1 sequence (Q96QZ7 472-554 limits assumed): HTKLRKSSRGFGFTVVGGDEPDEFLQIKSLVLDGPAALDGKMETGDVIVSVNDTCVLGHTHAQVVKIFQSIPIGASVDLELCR
Procedure: The best hits from in silico screening were subject to screening in a matrix/array competition assay format, i.e., assays where docking of ligands to solid phase PDZ domain in fusion proteins was assessed in the presence and absence of the small molecule competitor as described elsewhere. The compounds were screened for inhibition of the PDZ/PL interactions.
The small molecules were considered as hits based on the OD450 readout of the assay. The best of the hits in this analysis were then subject to titration binding studies, i.e., titration of compounds in the same competition assay to estimate the IC50 value.

3Y1 pBlast-E6-16 cells [2] = assay: cell migration assay (96-well filter plate); assay type: cell-based, rat; conditions: 40 μM, 24 hours, OD560; compared with 3Y1 pBlast E6-16 ΔPL cells
Procedure: The effect of compound 7291-0042 on the rate of cell migration and proliferation was determined on three different cell lines, 3Y1 pBlast, 3Y1 pBlast-E6-16 and 3Y1 pBlast E6-16 ΔPL.
Plasmid constructs of HPV E6-16 (wild type) and HPV E6-16 ΔPL were generated using the vector pBlast (InvivoGen, Toulouse, France). Recombinant plasmids were generated by recombinant DNA cloning methods known in the art.
These constructs were transfected into rat 3Y1 primary cells using the LipofectAMINE™ 2000 Reagent (Invitrogen Cat#11668-027) and accompanying protocol. pBlast without insert was transfected as a negative control. Cells were incubated at 37° in RPMI media with non-essential amino acids, 10% FBS, and 1 ug/mL […] until confluent (about 4 days).
Each of the three transfected cell lines were seeded onto a 96-well filter plate with a feeder tray and lid in RPMI media with a gradient of 0.5% to 10% FBS and non-essential amino acids. Three different treatments were applied to the cell lines. The cells were treated with either 40 μM or 60 μM of the compound 7291-0042, or DMSO. […] The undersides of the filters were left uncoated. […] Cell migration through the membrane was quantified by staining the cells that attach to the lower side of the membrane with a colorometric dye at OD560 after 24 hours with a microplate reader.

3Y1 pBlast-E6-16 cells [3] = assay: cell proliferation assay; assay type: cell-based, rat; conditions: 40 μM; compared with 3Y1 pBlast E6-16 ΔPL and 3Y1 pBlast
Procedure: Compound 7291-0042 was further analyzed for its ability to block the development of other cancerous characteristics in cells by a cell proliferation assay. The three cell lines described in the Example 2 were seeded onto a 12-well plate, and allowed to adhere and grow to confluent (about 24 hours) in EMEM media with 10% FBS and non-essential amino acids. 100 μl of compound 7291-0042 at concentrations 0 μM, 20 μM, 40 μM, and 80 μM was applied to the cells. The cells were measured at 24, 48, 72 and 96 hours after addition of the compound.

SiHa cells = assay: WST-1 cytotoxicity assay, SiHa; assay type: cell-based; conditions: 60 μM, HPV-positive cervical cancer cell line
Procedure: (§1) To determine the cytotoxicity of the compound 7291-0042, drug toxicity studies were performed in HPV-positive (E6 transformed) cervical cancer cell lines SiHa and HeLa and HPV-negative cervical cancer cell line […]. […] and SiHa cells were seeded onto a 12-well plate, allowed to adhere and grown to 10,000 cells per well. HeLa cells were seeded, allowed to adhere and grown to 5,000 cells per well. 100 μl of compound 7291-0042 at a concentration of 60 μM or DMSO was added to the cells 24 hours after plating. Cytotoxicity of the cells was assessed by the WST-1 calorimetric assay. In brief, the calorimetric assay is based on the cleavage of the tetrazolium salt WST-1 to a formazan-class dye by mitochondrial succinate-tetrazolium reductase in viable cells. As the cells proliferate, more WST-1 is converted to the formazan product. The quantity of formazan dye is directly related to the number of metabolically active cells, and can be quantified by measuring the absorbance at 420-480 nm (Amax 450 nm) in a multiwell plate reader.

HeLa cells [4] = assay: WST-1 cytotoxicity assay, HeLa; assay type: cell-based; conditions: 60 μM, HPV-positive cervical cancer cell line
Procedure: as §1

C33a cells [5] = assay: WST-1 cytotoxicity assay, C33a; assay type: cell-based; conditions: 60 μM, HPV-negative cervical cancer cell line
Procedure: as §1

E6 protein (HPV18-E6) = assay: E6 oncoprotein expression by Western blot in HeLa cells; assay type: cell-based; conditions: 60-120 μM, 24 hours, vs DMSO control and untreated cells
Procedure: To determine whether the compound 7291-0042 has an effect on E6 protein expression, cervical cancer cell line HeLa was used. HeLa cells were seeded, allowed to adhere and grown to 0.5×10^6 cells per well. Compound 7291-0042 at a concentration of 60 μM, 80 μM, 100 μM, 120 μM, or DMSO was added to the cells 24 hours after plating and incubated for 24 hours. Cells that were untreated served as an additional control. Western blot was performed to determine the relative amounts of the E6 protein present in the different samples. Briefly, the cells were homogenized in a lysate buffer and the protein samples were separated using SDS-PAGE and transferred to a membrane for detection. The membrane was incubated with an anti-HPV18-E6 antibody, labeled with a secondary antibody-enzyme conjugate and detected. To ensure that the amount of protein loaded for each sample was similar, the membrane was stripped and labeled with an antibody that recognizes a protein encoding a housekeeping gene. For this experiment, an antibody against glyceraldehyde-3-phosphate dehydrogenase (GAPDH) was used.

[6] = test system: p53 tumor suppressor protein; assay: p53 protein expression by immunocytochemistry in HeLa cells; assay type: cell-based; conditions: 80-120 μM, 24 hours, vs DMSO control
Procedure: To determine whether the compound 7291-0042 has an effect on p53 protein expression, cervical cancer cell line HeLa was used. HeLa cells were seeded, allowed to adhere and grown to 0.5×10^6 cells per well. 1 ml of compound 7291-0042 at a concentration of 80 μM, 100 μM, 120 μM, or DMSO was added to the cells 24 hours after plating and incubated for 24 hours. Immunocytochemistry with anti-p53 monoclonal antibody was performed to determine the relative amounts of the p53 protein present in the different cell samples.

HeLa cells [7] = assay: TUNEL apoptosis assay, HeLa; assay type: cell-based; conditions: 120 M (so in the source), 48 hours, flow cytometry
Procedure: (§2) To determine whether the compound 7291-0042 induces apoptosis in HPV-positive cervical cancer cell lines, HeLa cells and the HPV-negative cell line C33A were used. HeLa and C33A cells were seeded at 1-2×10^6 in 10-cm dishes and allowed to adhere and grow to 80-90% confluency. Compound 7291-0042 at a concentration of 60 μM, 80 μM, 100 μM, 120 μM, or DMSO was added to the cells 24 hours after plating and incubated for 48 hours. TUNEL assay was performed for the specific quantitation of apoptotic cells within a cell population using the DeadEnd Fluorometric TUNEL System from Promega (Madison, Wis.). Briefly, the cells were harvested by trypsinization and washed in PBS. Cells were then fixed in 4% formalin and incubated in buffer containing nucleotides and rTdT enzyme for 1 hour at 37° C. After terminating the reaction by adding EDTA, cells were washed with PBS and permeabilized with Triton X-100 and propidium iodide was added to stain all the cells. Cells were then analyzed by flow cytometery. Apoptosis signal was quantified by measuring green fluorescence of fluorescein-12-dUTP at 520±20 nm and red fluorescence of propidium iodide at >620 nm.

C33a cells [8] = assay: TUNEL apoptosis assay, C33A; assay type: cell-based; conditions: 120 M (so in the source), 48 hours, flow cytometry
Procedure: as §2

## CCc1cccc2c(C(c3ccccc3OCC(=O)O)c3c[nH]c4c(CC)cccc34)c[nH]c12 [7291-0042]
[1]
  specificity of disruption of the interaction between HPV E6 protein and MAGI-1 PDZ1: greatest specificity
3Y1 pBlast-E6-16 cells [2]
  rate of cell migration: restored baseline cell migration
3Y1 pBlast-E6-16 cells [3]
  rate of cell proliferation: restored baseline rate of cell proliferation
SiHa cells
  cytotoxicity, SiHa cells: selectively killed
HeLa cells [4]
  cytotoxicity, HeLa cells: selectively killed
C33a cells [5]
  cytotoxicity, C33a cells: remained viable
E6 protein (HPV18-E6)
  amount of E6 onco protein: decreased
[6]
  amount of p53 tumor suppressor protein: increased
HeLa cells [7]
  apoptotic cells, HeLa: 20%
C33a cells [8]
  apoptotic cells, C33A: 4%
